Patent US10392368B2, “Pyrazolo and triazolo bicyclic compounds as JAK kinase inhibitors” (THERAVANCE BIOPHARMA R&D IP, LLC, priority 2017, dated 2019)
Like-named read-outs stand apart in the source and are kept apart here.

What was measured:
[1] = system: IL-2 stimulated pSTAT5 in Tall-1 T cells; assay: Cellular JAK3 potency assay: inhibition of IL-2 stimulated pSTAT5 in Tall-1 T cells; type: cell-based, human; conditions: for IC50: Homo sapiens, read-out: Tall-1 (pIC50) (converted); for Tall-1 (pIC50): IL-2 stimulated pSTAT5 in Tall-1 T cells
Method in brief: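 Tall-1 human T cells (45,000/well) in phenol red-free DMEM with 10% FBS were preincubated with compound 1 h at 37 °C, then stimulated with IL-2 (final 300 ng/ml) for 30 min. Lysate pSTAT5 read by AlphaLisa; IC50 from inhibition curves, reported as pIC50 (mean±SD).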

Tyk2 = molecular target: T1, Tyk2 (Homo sapiens, UniProt P29597); assay: Biochemical Tyk2 kinase assay (LanthaScreen); conditions: for Ki: read-out: Tyk 2 (pKi) (converted)
T1 construct: GST; purchased Life Technologies
Method in brief: (§1)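 GST-tagged JAK enzyme and GFP-STAT1 peptide preincubated with compound 1 h, then ATP added; 1 h kinase reaction at ambient temperature, pH 7.5 HEPES/MgCl2 buffer, 1% DMSO. Tb-anti-pSTAT1 (pTyr701) TR-FRET, 520/495 nm ratio; IC50 from 4-parameter fit, converted to pKi via Cheng-Prusoff.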

JAK3 = molecular target: T2, JAK3 (Homo sapiens, UniProt P52333); assay: Biochemical JAK3 kinase assay (LanthaScreen); parameters: GST; purchased Life Technologies; conditions: for Ki: read-out: JAK 3 (pKi) (converted)
T2 sequence (P52333 1-1124): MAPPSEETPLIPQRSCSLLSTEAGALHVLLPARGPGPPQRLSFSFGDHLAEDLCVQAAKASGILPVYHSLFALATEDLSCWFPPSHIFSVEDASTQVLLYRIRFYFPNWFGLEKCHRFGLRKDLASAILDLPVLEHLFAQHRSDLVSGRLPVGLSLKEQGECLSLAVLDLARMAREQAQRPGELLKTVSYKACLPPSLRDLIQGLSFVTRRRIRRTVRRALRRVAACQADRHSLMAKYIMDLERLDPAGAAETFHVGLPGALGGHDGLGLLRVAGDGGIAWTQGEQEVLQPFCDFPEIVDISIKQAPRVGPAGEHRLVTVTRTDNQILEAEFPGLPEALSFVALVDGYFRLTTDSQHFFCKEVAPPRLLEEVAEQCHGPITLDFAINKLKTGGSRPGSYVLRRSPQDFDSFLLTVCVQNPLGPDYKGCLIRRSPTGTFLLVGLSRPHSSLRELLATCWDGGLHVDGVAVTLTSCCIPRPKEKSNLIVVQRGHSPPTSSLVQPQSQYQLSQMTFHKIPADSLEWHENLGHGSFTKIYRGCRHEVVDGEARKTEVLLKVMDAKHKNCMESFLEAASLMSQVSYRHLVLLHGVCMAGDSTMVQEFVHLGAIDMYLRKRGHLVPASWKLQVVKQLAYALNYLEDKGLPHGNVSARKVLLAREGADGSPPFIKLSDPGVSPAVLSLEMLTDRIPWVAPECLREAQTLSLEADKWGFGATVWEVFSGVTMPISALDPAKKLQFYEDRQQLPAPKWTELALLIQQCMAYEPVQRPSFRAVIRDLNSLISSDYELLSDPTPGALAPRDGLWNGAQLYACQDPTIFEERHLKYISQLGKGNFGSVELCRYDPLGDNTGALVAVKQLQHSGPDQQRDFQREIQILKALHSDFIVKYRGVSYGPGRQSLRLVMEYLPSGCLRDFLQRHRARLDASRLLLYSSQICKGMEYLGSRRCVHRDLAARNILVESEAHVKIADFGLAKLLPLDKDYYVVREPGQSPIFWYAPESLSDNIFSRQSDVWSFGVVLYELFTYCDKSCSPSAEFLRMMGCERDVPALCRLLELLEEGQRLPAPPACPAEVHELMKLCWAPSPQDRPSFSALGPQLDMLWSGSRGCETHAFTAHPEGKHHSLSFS
Method in brief: as §1

JAK1 = molecular target: T3, JAK1 (Homo sapiens, UniProt P23458); assay: Biochemical JAK1 kinase assay (LanthaScreen); conditions: for Ki: read-out: JAK 1 (pKi) (converted)
T3 construct: GST; purchased Life Technologies
Method in brief: as §1

JAK2 = molecular target: T4, JAK2 (Homo sapiens, UniProt O60674); assay: Biochemical JAK2 kinase assay (LanthaScreen); conditions: for Ki: read-out: JAK 2 (pKi) (converted)
T4 construct: GST; purchased Life Technologies
Method in brief: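 GST-tagged recombinant JAK2 pre-incubated 1 h at ambient temperature with compound and GFP-STAT1 peptide in HEPES pH 7.5/MgCl2 buffer, then ATP added for a 1 h reaction with 1% DMSO. TR-FRET read after EDTA and Tb-anti-pSTAT1 (pTyr701) addition; IC50 from 4-parameter fit, converted to pKi by Cheng-Prusoff.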

[2] = TALL-1, IL-2 stimulated pSTAT5, Tall-1 T cells
[3] = selectivity JAK3 over JAK1, difference of pKi
[4] = selectivity: difference of pKi JAK3 and pKi JAK1
[5] = TALL-1, IL-2 stimulated pSTAT5 in Tall-1 T cells

T1 sequence (P29597 whole entry): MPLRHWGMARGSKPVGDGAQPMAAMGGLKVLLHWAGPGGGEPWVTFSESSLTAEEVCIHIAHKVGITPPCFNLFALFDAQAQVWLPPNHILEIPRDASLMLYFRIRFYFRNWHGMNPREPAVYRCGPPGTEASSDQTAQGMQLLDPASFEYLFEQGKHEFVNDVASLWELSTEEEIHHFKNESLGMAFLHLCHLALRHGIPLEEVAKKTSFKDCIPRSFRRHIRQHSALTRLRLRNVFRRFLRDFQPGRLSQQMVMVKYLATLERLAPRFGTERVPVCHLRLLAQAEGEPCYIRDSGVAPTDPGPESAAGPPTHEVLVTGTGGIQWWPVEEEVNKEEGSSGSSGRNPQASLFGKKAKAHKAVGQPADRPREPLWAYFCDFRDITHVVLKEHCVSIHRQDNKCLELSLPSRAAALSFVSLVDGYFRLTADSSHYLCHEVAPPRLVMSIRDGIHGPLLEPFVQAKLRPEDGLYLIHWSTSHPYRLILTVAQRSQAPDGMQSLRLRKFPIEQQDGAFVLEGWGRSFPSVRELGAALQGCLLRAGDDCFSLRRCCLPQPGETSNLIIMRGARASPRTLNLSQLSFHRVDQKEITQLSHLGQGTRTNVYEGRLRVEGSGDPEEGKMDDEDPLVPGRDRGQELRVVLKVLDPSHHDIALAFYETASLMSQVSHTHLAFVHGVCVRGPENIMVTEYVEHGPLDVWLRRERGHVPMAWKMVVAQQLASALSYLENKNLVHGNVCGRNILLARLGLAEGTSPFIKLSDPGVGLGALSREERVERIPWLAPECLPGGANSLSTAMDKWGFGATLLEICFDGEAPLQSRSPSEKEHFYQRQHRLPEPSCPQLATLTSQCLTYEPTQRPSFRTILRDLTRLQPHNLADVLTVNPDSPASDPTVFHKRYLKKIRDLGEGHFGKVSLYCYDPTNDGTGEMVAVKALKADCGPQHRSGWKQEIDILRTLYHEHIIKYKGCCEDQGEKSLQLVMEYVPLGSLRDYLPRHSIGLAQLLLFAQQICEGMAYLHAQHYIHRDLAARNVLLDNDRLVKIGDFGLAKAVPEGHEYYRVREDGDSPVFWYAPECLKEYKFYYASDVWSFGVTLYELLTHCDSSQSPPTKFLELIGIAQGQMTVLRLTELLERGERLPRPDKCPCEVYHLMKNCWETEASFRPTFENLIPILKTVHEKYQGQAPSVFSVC
T3 sequence (P23458 whole entry): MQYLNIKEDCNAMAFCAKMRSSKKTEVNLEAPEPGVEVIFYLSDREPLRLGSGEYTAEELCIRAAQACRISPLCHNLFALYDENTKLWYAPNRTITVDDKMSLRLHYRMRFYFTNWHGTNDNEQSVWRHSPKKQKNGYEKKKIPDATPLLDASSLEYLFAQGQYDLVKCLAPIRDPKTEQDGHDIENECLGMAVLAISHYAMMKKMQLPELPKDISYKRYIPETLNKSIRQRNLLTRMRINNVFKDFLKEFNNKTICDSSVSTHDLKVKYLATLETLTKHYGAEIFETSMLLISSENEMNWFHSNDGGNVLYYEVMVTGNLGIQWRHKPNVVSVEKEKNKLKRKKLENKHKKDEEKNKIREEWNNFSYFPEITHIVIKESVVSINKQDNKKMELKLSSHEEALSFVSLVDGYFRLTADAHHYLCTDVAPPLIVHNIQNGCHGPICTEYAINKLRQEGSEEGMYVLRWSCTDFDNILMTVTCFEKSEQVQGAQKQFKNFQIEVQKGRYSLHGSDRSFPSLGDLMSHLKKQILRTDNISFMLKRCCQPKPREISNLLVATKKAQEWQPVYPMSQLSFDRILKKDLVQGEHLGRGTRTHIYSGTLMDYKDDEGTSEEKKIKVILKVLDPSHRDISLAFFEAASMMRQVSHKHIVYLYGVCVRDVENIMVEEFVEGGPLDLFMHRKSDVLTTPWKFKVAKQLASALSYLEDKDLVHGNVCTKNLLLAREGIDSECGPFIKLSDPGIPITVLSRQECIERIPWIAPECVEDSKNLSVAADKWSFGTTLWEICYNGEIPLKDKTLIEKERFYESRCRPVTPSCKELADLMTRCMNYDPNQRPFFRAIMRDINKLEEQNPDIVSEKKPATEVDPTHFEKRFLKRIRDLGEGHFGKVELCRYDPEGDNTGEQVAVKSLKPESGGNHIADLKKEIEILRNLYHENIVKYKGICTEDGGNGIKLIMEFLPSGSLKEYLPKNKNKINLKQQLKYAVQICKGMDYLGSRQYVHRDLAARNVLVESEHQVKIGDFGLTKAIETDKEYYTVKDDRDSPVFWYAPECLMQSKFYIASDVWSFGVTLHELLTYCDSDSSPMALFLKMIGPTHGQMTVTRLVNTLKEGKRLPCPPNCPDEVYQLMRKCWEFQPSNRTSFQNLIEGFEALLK
T4 sequence (O60674 whole entry): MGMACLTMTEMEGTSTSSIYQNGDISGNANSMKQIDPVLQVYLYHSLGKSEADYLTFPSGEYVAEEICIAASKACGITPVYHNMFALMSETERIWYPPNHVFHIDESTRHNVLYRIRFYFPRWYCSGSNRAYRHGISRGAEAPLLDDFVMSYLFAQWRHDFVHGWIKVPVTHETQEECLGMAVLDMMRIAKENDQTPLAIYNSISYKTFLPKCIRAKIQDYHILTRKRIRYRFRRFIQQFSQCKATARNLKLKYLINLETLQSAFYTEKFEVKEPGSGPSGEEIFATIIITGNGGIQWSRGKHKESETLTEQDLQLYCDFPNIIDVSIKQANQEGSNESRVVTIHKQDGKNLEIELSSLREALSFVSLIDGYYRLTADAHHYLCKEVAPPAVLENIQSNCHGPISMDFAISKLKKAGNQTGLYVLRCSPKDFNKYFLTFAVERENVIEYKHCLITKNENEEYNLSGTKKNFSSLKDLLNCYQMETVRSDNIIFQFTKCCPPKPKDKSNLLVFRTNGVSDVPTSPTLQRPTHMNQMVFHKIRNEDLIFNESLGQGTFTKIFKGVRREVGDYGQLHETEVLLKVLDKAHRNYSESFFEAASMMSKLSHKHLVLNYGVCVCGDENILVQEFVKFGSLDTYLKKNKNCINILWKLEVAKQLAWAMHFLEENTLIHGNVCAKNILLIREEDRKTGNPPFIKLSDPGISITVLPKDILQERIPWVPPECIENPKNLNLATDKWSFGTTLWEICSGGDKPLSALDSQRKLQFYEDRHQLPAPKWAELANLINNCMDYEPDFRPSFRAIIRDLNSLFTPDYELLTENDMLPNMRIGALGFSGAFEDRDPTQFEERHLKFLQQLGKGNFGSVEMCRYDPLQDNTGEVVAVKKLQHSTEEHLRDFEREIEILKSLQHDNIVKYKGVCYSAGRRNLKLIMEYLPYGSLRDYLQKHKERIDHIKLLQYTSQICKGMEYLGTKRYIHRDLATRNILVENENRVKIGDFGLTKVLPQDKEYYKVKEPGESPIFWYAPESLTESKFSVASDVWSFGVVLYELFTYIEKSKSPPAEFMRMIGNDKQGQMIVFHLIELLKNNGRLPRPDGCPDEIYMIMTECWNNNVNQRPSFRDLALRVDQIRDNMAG

SMILES | IC50 [1, 2] [µM] | Ki (Tyk2) [µM] | Ki (JAK3) [µM] | JAK3 (pKi)-JAK1 (pKi) (JAK3; [3]) | Ki (JAK1) [µM] | Ki (JAK2) [µM] | Tall-1 (pIC50) [1] | Tyk 2 (pKi) (Tyk2) | JAK 3 (pKi) (JAK3) | JAK3 (pKi)-JAK1 (pKi) (JAK3; [4]) | JAK 1 (pKi) (JAK1) | JAK 2 (pKi) (JAK2) | IC50 [1, 5] [µM]
C=CC(=O)N1CC(CSc2cc(-c3ccc(O)cc3)cc3[nH]ncc23)C1 [Compound 12-34] | < 0.0316 | > 0.1 | 0.0001 to 0.001 | B (a value of 2.3 to 3) | > 0.1 | > 0.1 |  |  |  |  |  |  | 
C=CC(=O)N1CC(Oc2nc(-c3ccc(O)cc3)nc3[nH]ncc23)CC1C (stereo not drawn) [Compound 1-24] |  |  |  |  |  |  | C (a pIC50 value between 6 and 6.7 (IC50 between 1 μM and 200 nM)) | E (a pKi value of 7 or below (Ki of 100 nM or above)) | B (a pKi value between 9 and 10 (Ki between 1 nM and 0.1 nM)) | A (a value of 3 or above) | E (a pKi value of 7 or below (Ki of 100 nM or above)) | E (a pKi value of 7 or below (Ki of 100 nM or above)) | 
C=CC(=O)N1CC(F)(COc2cc(-c3ccc(O)c(Cl)c3)cc3[nH]ncc23)C1 [Compound 3-43] |  |  |  |  |  |  | A (a pIC50 value≥7.5 (IC50≤32 nM)) | E (a pKi value of 7 or below (Ki of 100 nM or above)) | B (a pKi value between 9 and 10 (Ki between 1 nM and 0.1 nM)) | A (a value of 3 or above) | E (a pKi value of 7 or below (Ki of 100 nM or above)) | D (a pKi value between 7 and 8 (Ki between 100 nM and 10 nM)) | 
C=CC(=O)N1CC(CC)(COc2nc(-c3ccc(O)c(Cl)c3)cc3[nH]ncc23)C1 [Compound 3-66] |  |  |  |  |  |  | A (a pIC50 value≥7.5 (IC50≤32 nM)) | E (a pKi value of 7 or below (Ki of 100 nM or above)) | B (a pKi value between 9 and 10 (Ki between 1 nM and 0.1 nM)) | A (a value of 3 or above) | E (a pKi value of 7 or below (Ki of 100 nM or above)) | E (a pKi value of 7 or below (Ki of 100 nM or above)) | 
C=CC(=O)N1CC(COc2cc(-c3ccc(O)c(F)c3)cc3[nH]ncc23)C1 [Compound 3-4] |  | > 0.1 | 0.0001 to 0.001 |  | > 0.1 | 0.01 to 0.1 |  |  |  | A (a value of 3 or above) |  |  | < 0.0316
CN(C/C=C/C(=O)N1CC(COc2cc(-c3ccc(O)cc3)cc3[nH]ncc23)C1)C1CCC1 [Compound 3-117] |  | > 0.1 | 0.0001 to 0.001 |  | > 0.1 | 0.01 to 0.1 |  |  |  | B (a value of 2.3 to 3) |  |  | 0.0316 to 0.2
C=CC(=O)N1CCC(Cc2cc(-c3ccc(O)cc3)cc3[nH]ncc23)CC1 [Compound 14, 1-(4-((6-(4-hydroxyphenyl)-1H-indazol-4-yl)methyl)piperidin-1-yl)prop-2-en-1-one] |  | > 0.1 | 0.0001 to 0.001 |  | > 0.1 | > 0.1 |  |  |  | A (a value of 3 or above) |  |  | 0.0316 to 0.2
C=CC(=O)N1CC(C#N)(COc2nc(-c3ccc(O)c(Cl)c3)nc3[nH]ncc23)C1 [Compound 3-109] |  | > 0.1 | 0.0001 to 0.001 |  | > 0.1 | > 0.1 |  |  |  | A (a value of 3 or above) |  |  | 0.0316 to 0.2
C=CC(=O)N1CCS[C@@H](C(=O)Nc2cc(-c3ccc(O)cc3)cc3[nH]ncc23)C1 [Compound 12-44] | 0.0316 to 0.2 | > 0.1 | < 0.0001 | A (a value of 3 or above) | > 0.1 | 0.01 to 0.1 |  |  |  |  |  |  | 
